In US7435740B2 (King Pharmaceuticals Research and Development, Inc., priority 2005, dated 2008):

What was measured:
[1] = target: T1, human recombinant A1 adenosine receptor (Homo sapiens, UniProt P30542); assay: [3H]-DPCPX binding to human A1 adenosine receptor expressed in CHO cells
T1 sequence (P30542 1-326): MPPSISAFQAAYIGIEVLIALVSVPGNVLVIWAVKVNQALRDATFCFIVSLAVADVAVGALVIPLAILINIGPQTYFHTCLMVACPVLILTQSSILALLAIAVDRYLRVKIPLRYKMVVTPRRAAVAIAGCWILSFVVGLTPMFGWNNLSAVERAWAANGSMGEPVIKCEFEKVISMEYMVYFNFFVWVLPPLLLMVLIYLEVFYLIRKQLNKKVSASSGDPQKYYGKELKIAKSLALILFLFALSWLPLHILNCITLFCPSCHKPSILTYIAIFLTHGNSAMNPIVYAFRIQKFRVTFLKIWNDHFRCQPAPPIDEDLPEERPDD

[2] = target: T2, human recombinant A3 adenosine receptors (Homo sapiens, UniProt P0DMS8); assay: [3H]-MRE 3008F20 binding to hA3 receptors expressed in CHO cells; conditions: CHO cell membranes, 1 nM [3H]-MRE 3008F20; geometric mean, confidence limits in the line below; read-out: [3H] MRE3008F20 binding to hA3 receptors expressed in CHO cells Ki
T2 construct: expressed in transfected cells; host or cells: CHO cells (membranes)
T2 sequence (P0DMS8 1-318): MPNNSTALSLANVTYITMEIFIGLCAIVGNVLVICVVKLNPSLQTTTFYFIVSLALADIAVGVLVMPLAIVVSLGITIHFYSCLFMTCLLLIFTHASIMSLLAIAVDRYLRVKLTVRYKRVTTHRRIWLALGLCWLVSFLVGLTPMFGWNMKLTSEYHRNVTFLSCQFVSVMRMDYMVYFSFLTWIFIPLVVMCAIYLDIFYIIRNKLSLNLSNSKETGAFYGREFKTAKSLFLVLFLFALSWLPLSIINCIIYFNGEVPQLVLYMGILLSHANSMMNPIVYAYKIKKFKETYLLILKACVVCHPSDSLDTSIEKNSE

[3] = target: human recombinant A2A adenosine receptors (Homo sapiens, UniProt P29274); assay: Radioligand binding to hA2A receptors expressed in CHO cells; conditions: percentage given after the > bound; meaning not defined in the patent
[4] = target: T3, human recombinant A2B adenosine receptor (Homo sapiens, UniProt P29275); assay: cAMP assay in CHO hA2B; format: cell-based; conditions: percentage given after the > bound; meaning not defined in the patent
T3 sequence (P29275 1-332): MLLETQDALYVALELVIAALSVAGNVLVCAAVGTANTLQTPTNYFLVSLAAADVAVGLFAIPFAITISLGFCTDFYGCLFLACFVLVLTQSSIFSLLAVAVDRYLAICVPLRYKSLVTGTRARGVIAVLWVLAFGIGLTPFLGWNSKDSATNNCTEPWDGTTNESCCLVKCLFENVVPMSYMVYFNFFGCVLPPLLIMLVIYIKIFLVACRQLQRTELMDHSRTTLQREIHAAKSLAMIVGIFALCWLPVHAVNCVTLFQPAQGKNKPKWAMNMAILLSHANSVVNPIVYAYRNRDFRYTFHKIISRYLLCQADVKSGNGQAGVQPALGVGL

Chain of human recombinant A2A adenosine receptors (P29274 whole entry): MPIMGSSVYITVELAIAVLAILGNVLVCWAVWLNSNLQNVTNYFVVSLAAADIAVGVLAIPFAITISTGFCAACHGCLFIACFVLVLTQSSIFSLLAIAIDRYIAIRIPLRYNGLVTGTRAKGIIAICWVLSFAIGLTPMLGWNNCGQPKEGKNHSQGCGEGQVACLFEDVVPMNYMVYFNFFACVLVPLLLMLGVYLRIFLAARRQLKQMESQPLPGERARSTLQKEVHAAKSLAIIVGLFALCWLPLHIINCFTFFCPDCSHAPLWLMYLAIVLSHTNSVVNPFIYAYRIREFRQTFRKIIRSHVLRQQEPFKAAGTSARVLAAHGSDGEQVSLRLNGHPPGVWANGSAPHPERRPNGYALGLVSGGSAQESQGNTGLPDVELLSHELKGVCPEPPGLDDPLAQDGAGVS

Row | [3H] DPCPX binding to hA1, percentage in parentheses ([1]; percentage given after the > bound, meaning not defined in the patent) [%] | Ki [2] [nM] | melting point [°C] | [3H] ZM 241385 binding to hA2A receptors, percentage in parentheses [3] [%] | cAMP assay in CHO hA22B, percentage in parentheses [4] [%] | Ki ([1]; read-out: [3H] DPCPX binding to hA1, CHO cell membranes, 1 nM [3H]-DPCPX, geometric mean with confidence limits in parentheses) [nM] | SMILES
1 | 84 | 36 | 259 | 92 | 82 |  | CCCn1c(=O)c2c(nc3[nH]c(C)c(C)n32)n(Cc2ccccc2)c1=O [Compound 25, 1-Benzyl-6,7-dimethyl-3-propyl-1H-imidazo[1,2-f]purine-2,4(3H,8H)-dione]
2 |  | 31 | 128 to 130 | 91 | 77 | 460 | CCCn1c(=O)c2c(nc3[nH]c(C(C)C)cn32)n(Cc2ccccc2)c1=O [Compound 21, 1-Benzyl-7-isopropyl-3-propyl-1H-imidazo[1,2-f]purine-2,4(3H,8H)-dione]
